Target: T1, Purified ATP13A2 (Homo sapiens, UniProt Q9NQ11)
T1 sequence (Q9NQ11 1-1175 isoform Q9NQ11-3): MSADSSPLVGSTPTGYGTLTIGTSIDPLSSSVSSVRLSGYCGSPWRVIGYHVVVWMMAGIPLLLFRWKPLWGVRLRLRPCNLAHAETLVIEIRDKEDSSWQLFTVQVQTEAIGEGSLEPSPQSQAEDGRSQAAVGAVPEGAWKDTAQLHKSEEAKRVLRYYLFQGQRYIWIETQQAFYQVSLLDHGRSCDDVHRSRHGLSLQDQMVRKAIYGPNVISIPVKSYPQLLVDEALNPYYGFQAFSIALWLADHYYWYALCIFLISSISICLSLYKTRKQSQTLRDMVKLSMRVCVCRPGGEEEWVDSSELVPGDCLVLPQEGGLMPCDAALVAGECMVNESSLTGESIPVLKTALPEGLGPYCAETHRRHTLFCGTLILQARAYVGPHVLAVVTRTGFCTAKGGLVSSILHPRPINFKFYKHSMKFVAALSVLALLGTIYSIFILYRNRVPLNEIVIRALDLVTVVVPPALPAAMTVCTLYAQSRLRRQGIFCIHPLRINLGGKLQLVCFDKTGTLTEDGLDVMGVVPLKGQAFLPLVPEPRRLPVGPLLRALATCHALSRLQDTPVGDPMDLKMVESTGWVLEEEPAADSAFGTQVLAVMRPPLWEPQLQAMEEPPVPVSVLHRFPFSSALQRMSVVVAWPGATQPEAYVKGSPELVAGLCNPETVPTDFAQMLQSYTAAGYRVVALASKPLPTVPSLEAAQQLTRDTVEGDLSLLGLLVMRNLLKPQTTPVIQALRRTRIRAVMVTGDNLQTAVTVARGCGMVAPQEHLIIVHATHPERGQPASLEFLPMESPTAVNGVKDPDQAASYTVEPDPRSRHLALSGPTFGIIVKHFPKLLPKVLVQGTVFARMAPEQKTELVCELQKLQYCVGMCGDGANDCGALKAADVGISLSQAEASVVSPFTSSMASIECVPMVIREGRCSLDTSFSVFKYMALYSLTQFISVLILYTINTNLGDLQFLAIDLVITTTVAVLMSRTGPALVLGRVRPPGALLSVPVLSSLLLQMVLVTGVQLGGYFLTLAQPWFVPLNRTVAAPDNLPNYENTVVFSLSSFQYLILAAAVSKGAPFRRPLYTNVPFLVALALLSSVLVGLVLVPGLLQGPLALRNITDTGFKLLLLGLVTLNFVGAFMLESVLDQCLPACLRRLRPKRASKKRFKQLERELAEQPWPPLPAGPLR
Test: ATPase assay (ADP-Glo Max), purified ATP13A2 from yeast expression system
Format: biochemical
Design: we obtained >95% pure, full length and solubilized ATP13A2; biotin acceptor domain (BAD) tag behind a thrombin cleavage site (C, cleaved yes); made in house; host or cells: S. cerevisiae W303-1B/Gal4-ΔPep4, pYeDP60 vector
Conditions: for Vmax ± SEM: Purified ATP13A2 with 125 µM PA and 125 µM PI(3,5)P2
Experimental: ATPase assay - The ATPase activity of ATP13A2 was assessed using a commercially available luminescence assay (ADP-Glo Max assay, Promega) that monitors the production of ADP via luciferase activity. The reactions were performed for 30 min (37°C) in a final volume of 25 µl. The assay reaction mixture contained 50 mM MOPS-KOH (pH 7), 100 mM KCI, 11 mM MgCl2, 1 mM DTT, 195 µM DDM, various concentrations of the indicated compound, and either microsomes (5 µg) harvested from SH-SY5Y cells overexpressing ATP13A2 (WT or mutants) or purified ATP13A2 (0.5 µg). When purified ATP13A2 was used, we included 125 µM PA, 125 µM PI(3,5)P2 and 19.5 µM DDM in the reaction buffer. The assay was started by the addition of 5 mM ATP and was terminated by adding 25 µl of ADP-Glo Reagent. The 96-well plate was then incubated for 40 min at room temperature, followed by the addition of 50 µl of ADP-Glo Max Detection Reagent. After 40 min, luminescence was detected using a FlexStation 3.0 system (Molecular Devices). Dose-response curves and n/Km/Vmax values were calculated using GraphPad Prism Software (GraphPad Software Inc.).
Transformation and overexpression of ATP13A2 in yeast - The S. cerevisiae W303-1B/Gal4-ΔPep4 strain (leu2-3, his3-11,15, trp1-1::TRP1-GAL10-GAL4, ura3-1, ade2-1, canr, cir^+, ΔPep4 MAT; a kind gift from Rosa Lopez Marques) was transformed according to the lithium acetate/single-stranded carrier DNA/polyethylene glycol method [Gietz, R. D. & Woods, R. A. Methods Enzymol 350, 87-96 (2002)], with the pYeDP60 vector containing a yeast codon optimized version of human ATP13A2 variant 2 (WT or the catalytically dead E343A mutant) followed by a thrombin cleavage site and a C-terminal BAD tag [Azouaoui, H. et al. PLoS One 9, e112176, (2014); Jidenko, M. et al.Protein Expr Purif 48, 32-42, (2006)]. The transformation mixture was grown for 48 h at 30°C on minimal medium agar plates lacking uracil (0.54% yeast nitrogen base without amino acids, 0.12% yeast drop-out mix without Ura, 2% glucose, and 2% agar) to select yeast colonies that acquired the plasmid. These colonies were then cultured in 20 ml of MM-Ura medium (0.67% yeast nitrogen base without amino acids, 0.19% yeast drop-out mix without Ura, and 2% glucose) and grown for 24 h at 28°C and 200 rpm. The MM-Ura yeast pre-culture was used to inoculate 100 ml of MM-Ura medium to a final OD600 of 0.2, followed by a 12 h incubation period (28°C and 200 rpm). The second pre-culture was inoculated into 4.5 l of YPGE2X medium (2% yeast extract, 2% bactopeptone, 1% glucose, and 2.7% ethanol) to a final OD600 of 0.05 and grown for 36 h (28°C and 175 rpm). ATP13A2-BAD expression was induced with 2% galactose, followed by a second galactose induction 12 h later. After another 12 h, the pellet was collected (1,000 x g; 10 min; 4°C).
Yeast membrane preparation - Yeast cells were broken with glass beads using a BeadBeater (BioSpec products). The lysis buffer contained 50 mM Tris-HCI (pH 7.5), 1 mM EDTA, 0.6 M sorbitol, 1 mM phenylmethylsulfonyl fluoride and SigmaFast protease inhibitor. To remove cell debris and nuclei, the crude extract was centrifuged at 2,000 x g for 20 min (4°C). The supernatant (S1) was centrifuged at 20,000 x g for 20 min (4°C) to pellet the heavy membrane fraction (P2), and the resulting supernatant (S2) was further centrifuged at 200,000 x g for 1 h (4°C). The resulting pellet (i.e., the light membrane fraction, P3) was resuspended in 20 mM HEPES-Tris (pH 7.4), 0.3 M sucrose and 0.1 mM CaCl2. The total protein concentration was determined using a Bradford assay (B6916, Sigma-Aldrich).
ATP13A2-BAD purification - The method used to purify ATP13A2 was based on the purification of overexpressed Drs2p from yeast membranes. Yeast P3 membranes were diluted to 5 mg of total protein/ml in SSR buffer (50 mM MOPS-KOH (pH 7), 100 mM KCI, 20% glycerol, 5 mM MgCl2, 1 mM DTT, and SigmaFast protease inhibitor cocktail) and solubilized using DDM, with a detergent to protein ratio of 1:1.

| SMILES | Vmax ± SEM | ATPase activity of purified ATP13A2 (indicated SPM concentrations) |
| --- | --- | --- |
| NCCCCNCCCN [Spermidine, spermidine] | 194 ± 26 nmol ADP/mg/min |  |
| NCCCNCCCCNCCCN [Spermine, spermine] | 159 ± 10 nmol ADP/mg/min | stimulated the ATPase activity |

Reference: patent EP3839043A1, “SCREENING METHODS FOR COMPOUNDS MODULATING POLYAMINE TRANSPORT” (Katholieke Universiteit Leuven, priority 2019, dated 2021)
